# Experimental data reported in PubChem BioAssay (NCI).
#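 Exposure lasted 48 hours, with cells grown in 96-well plates and compounds tested at five concentrations. Definition used: TGI = concentration required for complete inhibition of growth.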
# System: SN12C renal
# Assay: NCI tumour cell line growth inhibition, 48 h
row,Structure (SMILES),TGI
1,CCC1(CC)SCc2nc3ccccc3n21,> 100 µM
2,C[C@]12CC[C@H](O)CC1=CC[C@@H]1[C@@H]2CC[C@]2(C)C(=O)[C@@H](N3CCOCC3)C[C@@H]12,> 100 µM
3,CC(=O)n1nc(-c2ccccc2)n(/N=C/c2ccc([N+](=O)[O-])cc2)c1=O,> 100 µM
4,COc1ccc(C(=O)Sc2c(-c3ccccc3)c(=O)n(-c3ccccc3)c(=S)n2-c2ccccc2)cc1,> 100 µM
5,COc1ccc(CC2c3cc(Oc4cc(CC5c6cc(OC)c(OC)cc6CCN5C)ccc4O)c(OC)cc3CCN2C)cc1 (configuration not stated),14.8 µM
6,COc1ccc(C(C)NNC(=O)c2ccncc2)c(OC)c1 (configuration not stated),> 100 µM
7,O=[N+]([O-])c1cc2oc(COc3ccccc3)nc2cc1Cl,65.1 µM
8,Cc1ccc(S(=O)(=O)N/N=C/C(=C/c2ccc(Cl)cc2)CC(/C=N/NS(=O)(=O)c2ccc(C)cc2)=C\c2ccc(Cl)cc2)cc1,35 µM
9,CC(C)(C)c1cc(C(P(=O)(c2ccccc2)c2ccccc2)P(=O)(c2ccccc2)c2ccccc2)cc(C(C)(C)C)c1O,> 9.06 µM
10,CCn1c(-c2cc(OC)cc(OC)c2)nc2c1C(=O)c1ccccc1C2=O,> 100 µM
11,CCN(CC)c1c(N(CC)CC)c(=O)c1=O,24 µM
12,COc1cc(-c2cc(=O)c3c(OC)c(OC)c(OC)c(OC)c3o2)c(OC)c(OC)c1OC,> 100 µM
13,O=[N+]([O-])c1ccc(Cl)c(C=NC23CC4CC(CC(C4)C2)C3)c1,> 10 µM
14,CCSc1n/c(=C\c2ccco2)c2nnnn12,> 100 µM
15,COc1cc(/C=C2\CCC(C)C3C2=NN(C(C)=O)C3c2cc(OC)c(OC)c(OC)c2)cc(OC)c1OC (configuration not stated),> 100 µM
16,CCCCCCCCCCCCCCCCCCNc1ccn(C2OC(COP(=O)(O)OCC3OC(n4cc(C)c(=O)[nH]c4=O)CC3O)C(O)C2O)c(=O)n1 (configuration not stated),33.4 µM
17,CC[N+](CC)(CCNCC(N)=O)CC(N)=O,> 10 µM
18,COc1cc(Nc2cnc3cc(F)c(F)cc3n2)cc(OC)c1OC,> 100 µM

# System: SNB-19 CNS
# Assay: NCI tumour cell line growth inhibition, 48 h
row,Structure (SMILES),TGI
1,S=C(NCc1ccccc1)c1nc[nH]c1C(=S)NCc1ccccc1,18.6 µM
2,O=Cc1ccc2c(c1)CC1(C2)Cc2ccc3c(c2C1)CCC3 (configuration not stated),21 µM
3,CC(C)(Cc1ccccc1)NC1=NCCO1,> 100 µM
4,C=C(C)C(CC=C(C)C)CC12CC(CC=C(C)C)C(C)(C)C(CC=C(C)C)(C(=O)C(Cc3ccc(O)c(O)c3)=C1O)C2=O (configuration not stated),> 100 µM
5,CCc1nc(N)nc(N)c1-c1ccc2nn(-c3ccccc3)[n+]([O-])c2c1,> 70.4 µM
6,Nc1nc(N)c2[nH]c(CNc3ccc(C(=O)O)cc3)nc2n1,> 100 µM
7,CCC1(CC)SCc2nc3ccccc3n21,> 100 µM
8,C[C@]12CC[C@H](O)CC1=CC[C@@H]1[C@@H]2CC[C@]2(C)C(=O)[C@@H](N3CCOCC3)C[C@@H]12,> 100 µM
9,CC(=O)n1nc(-c2ccccc2)n(/N=C/c2ccc([N+](=O)[O-])cc2)c1=O,> 100 µM
10,COc1ccc(C(=O)Sc2c(-c3ccccc3)c(=O)n(-c3ccccc3)c(=S)n2-c2ccccc2)cc1,> 100 µM
11,COc1ccc(CC2c3cc(Oc4cc(CC5c6cc(OC)c(OC)cc6CCN5C)ccc4O)c(OC)cc3CCN2C)cc1 (configuration not stated),12.5 µM
12,COc1ccc(C(C)NNC(=O)c2ccncc2)c(OC)c1 (configuration not stated),> 100 µM
13,O=[N+]([O-])c1cc2oc(COc3ccccc3)nc2cc1Cl,> 100 µM
14,Cc1ccc(S(=O)(=O)N/N=C/C(=C/c2ccc(Cl)cc2)CC(/C=N/NS(=O)(=O)c2ccc(C)cc2)=C\c2ccc(Cl)cc2)cc1,> 100 µM
15,CC(C)(C)c1cc(C(P(=O)(c2ccccc2)c2ccccc2)P(=O)(c2ccccc2)c2ccccc2)cc(C(C)(C)C)c1O,> 10 µM
16,CCn1c(-c2cc(OC)cc(OC)c2)nc2c1C(=O)c1ccccc1C2=O,> 100 µM
17,CCN(CC)c1c(N(CC)CC)c(=O)c1=O,> 89.6 µM
18,COc1cc(-c2cc(=O)c3c(OC)c(OC)c(OC)c(OC)c3o2)c(OC)c(OC)c1OC,> 100 µM
19,O=[N+]([O-])c1ccc(Cl)c(C=NC23CC4CC(CC(C4)C2)C3)c1,> 10 µM
20,CCSc1n/c(=C\c2ccco2)c2nnnn12,> 100 µM
21,COc1cc(/C=C2\CCC(C)C3C2=NN(C(C)=O)C3c2cc(OC)c(OC)c(OC)c2)cc(OC)c1OC (configuration not stated),> 100 µM
22,CCCCCCCCCCCCCCCCCCNc1ccn(C2OC(COP(=O)(O)OCC3OC(n4cc(C)c(=O)[nH]c4=O)CC3O)C(O)C2O)c(=O)n1 (configuration not stated),29.8 µM
23,CC[N+](CC)(CCNCC(N)=O)CC(N)=O,> 10 µM
24,COc1cc(Nc2cnc3cc(F)c(F)cc3n2)cc(OC)c1OC,> 100 µM

# System: SNB-75 CNS
# Assay: NCI tumour cell line growth inhibition, 48 h
row,Structure (SMILES),TGI
1,S=C(NCc1ccccc1)c1nc[nH]c1C(=S)NCc1ccccc1,19.5 µM
2,O=Cc1ccc2c(c1)CC1(C2)Cc2ccc3c(c2C1)CCC3 (configuration not stated),28.9 µM
3,CC(C)(Cc1ccccc1)NC1=NCCO1,> 100 µM
4,C=C(C)C(CC=C(C)C)CC12CC(CC=C(C)C)C(C)(C)C(CC=C(C)C)(C(=O)C(Cc3ccc(O)c(O)c3)=C1O)C2=O (configuration not stated),> 100 µM
5,CCc1nc(N)nc(N)c1-c1ccc2nn(-c3ccccc3)[n+]([O-])c2c1,53.1 µM
6,Nc1nc(N)c2[nH]c(CNc3ccc(C(=O)O)cc3)nc2n1,> 100 µM
7,CCC1(CC)SCc2nc3ccccc3n21,51.8 µM
8,C[C@]12CC[C@H](O)CC1=CC[C@@H]1[C@@H]2CC[C@]2(C)C(=O)[C@@H](N3CCOCC3)C[C@@H]12,99.2 µM
9,CC(=O)n1nc(-c2ccccc2)n(/N=C/c2ccc([N+](=O)[O-])cc2)c1=O,> 100 µM
10,COc1ccc(C(=O)Sc2c(-c3ccccc3)c(=O)n(-c3ccccc3)c(=S)n2-c2ccccc2)cc1,> 100 µM
11,COc1ccc(CC2c3cc(Oc4cc(CC5c6cc(OC)c(OC)cc6CCN5C)ccc4O)c(OC)cc3CCN2C)cc1 (configuration not stated),15.3 µM
12,COc1ccc(C(C)NNC(=O)c2ccncc2)c(OC)c1 (configuration not stated),> 100 µM
13,O=[N+]([O-])c1cc2oc(COc3ccccc3)nc2cc1Cl,58 µM
14,Cc1ccc(S(=O)(=O)N/N=C/C(=C/c2ccc(Cl)cc2)CC(/C=N/NS(=O)(=O)c2ccc(C)cc2)=C\c2ccc(Cl)cc2)cc1,60.1 µM
15,CC(C)(C)c1cc(C(P(=O)(c2ccccc2)c2ccccc2)P(=O)(c2ccccc2)c2ccccc2)cc(C(C)(C)C)c1O,7.39 µM
